Measurements as given in PubChem BioAssay AID1963965 (Molecular Pharmacology Branch, DTP, NCI, 2024).
Values joined by “and” are separate entries in the source; they are usually repeats but may differ in a detail not shown here. Equal entries are not always repeated.

Tested on: 996289-038-R-J1-PDC spheroid viability
Assay: Anticancer human tumor 996289-038-R-J1-PDC patient-derived colon adenocarcinoma cell line growth inhibition [PI3K]
Settings: spheroids with HUVEC and MSC; for viability, T/C: stronger effect = lower value
In short: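 Agents were dosed from a top concentration near clinical Cmax (otherwise 10 microM) in half-log decrements, alone or combined with PI3K inhibitors. The spheroids contain tumor cells plus endothelial (HUVEC) and MSC stroma; viability is measured.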

[1] = curve of first compound, second compound 0.0316 µM
[2] = curve of first compound, second compound 0.1 µM
[3] = curve of first compound, second compound 0.316 µM
[4] = curve of first compound, second compound 1 µM
[5] = curve of first compound, second compound 3.16 µM
[6] = curve of first compound, second compound 10 µM
[7] = second compound 0.0316 µM, first compound 0.0316 µM
[8] = second compound 0.0316 µM, first compound 0.1 µM
[9] = second compound 0.1 µM, first compound 0.0316 µM
[10] = second compound 0.1 µM, first compound 0.1 µM
[11] = second compound 0.316 µM, first compound 0.0316 µM
[12] = second compound 0.316 µM, first compound 0.1 µM
[13] = second compound 1 µM, first compound 0.0316 µM
[14] = second compound 1 µM, first compound 0.1 µM
[15] = second compound 3.16 µM, first compound 0.0316 µM
[16] = second compound 3.16 µM, first compound 0.1 µM
[17] = second compound 10 µM, first compound 0.0316 µM
[18] = second compound 10 µM, first compound 0.1 µM
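Further: spheroids exposed to compounds for seven days before viability read.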
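Wherever viability, T/C is given: luminescence used as a proxy for viable cell amount; percent viability relative to DMSO vehicle control as 100%.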

Which IC50 [1] does the source give for CC(=O)c1c(C)c2cnc(Nc3ccc(N4CCNCC4)cn3)nc2n(C2CCCC2)c1=O + Cc1nc(NC(=O)N2CCCC2C(N)=O)sc1-c1ccnc(C(C)(C)C(F)(F)F)c1 here?
The IC50 was over 0.1 µM.

What about the IC50 [2] of the same compound?
The IC50 was over 0.1 µM.

And the IC50 [3]?
The IC50 was over 0.1 µM.

What about the IC50 [4] of the same compound?
Its IC50 is over 0.1 µM.

And the IC50 [5]?
The IC50 was over 0.1 µM.

What about the IC50 [6] of the same compound?
Its IC50 is under 0.000316 µM.

What about the viability, T/C (second compound 0.0316 µM, first compound 0.000316 µM) of the same compound?
The viability, T/C was 99.8%.

What about the viability, T/C (second compound 0.0316 µM, first compound 0.001 µM) of the same compound?
Its viability, T/C is 83.4%.

What about the viability, T/C (second compound 0.0316 µM, first compound 0.00316 µM) of the same compound?
Its viability, T/C is 89.9%.

What about the viability, T/C (second compound 0.0316 µM, first compound 0.01 µM) of the same compound?
Its viability, T/C is 86.4%.

What about the viability, T/C [7] of the same compound?
The viability, T/C was 110%.

And the viability, T/C [8]?
The viability, T/C was 99.8%.

And the viability, T/C (second compound 0.1 µM, first compound 0.000316 µM)?
The viability, T/C was 111%.

What about the viability, T/C (second compound 0.1 µM, first compound 0.001 µM) of the same compound?
Its viability, T/C is 88.9%.

What about the viability, T/C (second compound 0.1 µM, first compound 0.00316 µM) of the same compound?
Its viability, T/C is 107%.

What about the viability, T/C (second compound 0.1 µM, first compound 0.01 µM) of the same compound?
The viability, T/C was 91.7%.

What about the viability, T/C [9] of the same compound?
The viability, T/C was 94.7%.

And the viability, T/C [10]?
Its viability, T/C is 81.6%.

And the viability, T/C (second compound 0.316 µM, first compound 0.000316 µM)?
Its viability, T/C is 81.5%.

What about the viability, T/C (second compound 0.316 µM, first compound 0.001 µM) of the same compound?
Its viability, T/C is 78.1%.

What about the viability, T/C (second compound 0.316 µM, first compound 0.00316 µM) of the same compound?
Its viability, T/C is 80%.

And the viability, T/C (second compound 0.316 µM, first compound 0.01 µM)?
The viability, T/C was 80.2%.

What about the viability, T/C [11] of the same compound?
Its viability, T/C is 86.4%.

What about the viability, T/C [12] of the same compound?
Its viability, T/C is 77.7%.

And the viability, T/C (second compound 1 µM, first compound 0.000316 µM)?
Its viability, T/C is 77.7%.

What about the viability, T/C (second compound 1 µM, first compound 0.001 µM) of the same compound?
Its viability, T/C is 74.5%.

What about the viability, T/C (second compound 1 µM, first compound 0.00316 µM) of the same compound?
Its viability, T/C is 69.2%.

What about the viability, T/C (second compound 1 µM, first compound 0.01 µM) of the same compound?
Its viability, T/C is 69.7%.

What about the viability, T/C [13] of the same compound?
Its viability, T/C is 85.2%.

And the viability, T/C [14]?
Its viability, T/C is 66.7%.

And the viability, T/C (second compound 3.16 µM, first compound 0.000316 µM)?
Its viability, T/C is 60.1%.

And the viability, T/C (second compound 3.16 µM, first compound 0.001 µM)?
The viability, T/C was 57.9%.

What about the viability, T/C (second compound 3.16 µM, first compound 0.00316 µM) of the same compound?
The viability, T/C was 62.7%.

And the viability, T/C (second compound 3.16 µM, first compound 0.01 µM)?
The viability, T/C was 61.7%.

What about the viability, T/C [15] of the same compound?
Its viability, T/C is 57.9%.

And the viability, T/C [16]?
The viability, T/C was 48%.

What about the viability, T/C (second compound 10 µM, first compound 0.000316 µM) of the same compound?
Its viability, T/C is 45.4%.

What about the viability, T/C (second compound 10 µM, first compound 0.001 µM) of the same compound?
Its viability, T/C is 40.6%.

And the viability, T/C (second compound 10 µM, first compound 0.00316 µM)?
The viability, T/C was 36.6%.

And the viability, T/C (second compound 10 µM, first compound 0.01 µM)?
Its viability, T/C is 39.9%.

What about the viability, T/C [17] of the same compound?
The viability, T/C was 47.4%.

And the viability, T/C [18]?
The viability, T/C was 36.8%.

For C[C@@H](NC(=O)c1ncnc(N)c1Cl)c1ncc(C(=O)Nc2cc(C(F)(F)F)c(Cl)cn2)s1, which viability, T/C (compound 0.0316 µM) is on record?
Its viability, T/C is 110% [middle of 4 runs].

What about the viability, T/C (compound 0.1 µM) of the same compound?
The viability, T/C was 103% [middle of 4 runs].

What about the viability, T/C (compound 0.316 µM) of the same compound?
Its viability, T/C is 110% (2×) and 119% and 115%.

What about the viability, T/C (compound 1 µM) of the same compound?
Its viability, T/C is 114% [middle of 4 runs].

What about the viability, T/C (compound 10 µM) of the same compound?
The viability, T/C was 131% [middle of 4 runs].

And the IC50 (curve of compound)?
Its IC50 is over 10 µM.

CNC(=O)c1ccc(N2C(=S)N(c3ccc(C#N)c(C(F)(F)F)c3)C(=O)C2(C)C)cc1F + CC(Nc1ncnc2nc[nH]c12)c1cc2cccc(Cl)c2c(=O)n1-c1ccccc1 was tested. Which IC50 [1] did it give?
Its IC50 is over 10 µM.

What about the IC50 [2] of the same compound?
Its IC50 is over 10 µM.

What about the IC50 [3] of the same compound?
Its IC50 is over 10 µM.

What about the IC50 [4] of the same compound?
Its IC50 is over 10 µM.

And the IC50 [5]?
The IC50 was over 10 µM.

And the IC50 [6]?
The IC50 was over 10 µM.

What about the viability, T/C [7] of the same compound?
Its viability, T/C is 96.5%.

And the viability, T/C [8]?
The viability, T/C was 104%.

What about the viability, T/C (second compound 0.0316 µM, first compound 0.316 µM) of the same compound?
Its viability, T/C is 110%.

What about the viability, T/C (second compound 0.0316 µM, first compound 1 µM) of the same compound?
Its viability, T/C is 110%.

What about the viability, T/C (second compound 0.0316 µM, first compound 3.16 µM) of the same compound?
The viability, T/C was 118%.

What about the viability, T/C (second compound 0.0316 µM, first compound 10 µM) of the same compound?
Its viability, T/C is 119%.

What about the viability, T/C [9] of the same compound?
Its viability, T/C is 130%.

And the viability, T/C [10]?
The viability, T/C was 98.4%.

What about the viability, T/C (second compound 0.1 µM, first compound 0.316 µM) of the same compound?
Its viability, T/C is 93.6%.

What about the viability, T/C (second compound 0.1 µM, first compound 1 µM) of the same compound?
Its viability, T/C is 88.6%.

What about the viability, T/C (second compound 0.1 µM, first compound 3.16 µM) of the same compound?
The viability, T/C was 105%.

And the viability, T/C (second compound 0.1 µM, first compound 10 µM)?
The viability, T/C was 108%.

And the viability, T/C [11]?
The viability, T/C was 107%.

What about the viability, T/C [12] of the same compound?
Its viability, T/C is 106%.

What about the viability, T/C (second compound 0.316 µM, first compound 0.316 µM) of the same compound?
The viability, T/C was 102%.

And the viability, T/C (second compound 0.316 µM, first compound 1 µM)?
Its viability, T/C is 110%.

And the viability, T/C (second compound 0.316 µM, first compound 3.16 µM)?
The viability, T/C was 119%.

What about the viability, T/C (second compound 0.316 µM, first compound 10 µM) of the same compound?
The viability, T/C was 103%.

What about the viability, T/C [13] of the same compound?
The viability, T/C was 94.7%.

What about the viability, T/C [14] of the same compound?
The viability, T/C was 112%.

What about the viability, T/C (second compound 1 µM, first compound 0.316 µM) of the same compound?
Its viability, T/C is 98.2%.

What about the viability, T/C (second compound 1 µM, first compound 1 µM) of the same compound?
Its viability, T/C is 102%.

What about the viability, T/C (second compound 1 µM, first compound 3.16 µM) of the same compound?
Its viability, T/C is 114%.

What about the viability, T/C (second compound 1 µM, first compound 10 µM) of the same compound?
The viability, T/C was 96.9%.

And the viability, T/C [15]?
The viability, T/C was 96.9%.

And the viability, T/C [16]?
Its viability, T/C is 102%.

And the viability, T/C (second compound 3.16 µM, first compound 0.316 µM)?
The viability, T/C was 89.6%.

What about the viability, T/C (second compound 3.16 µM, first compound 1 µM) of the same compound?
The viability, T/C was 109%.

And the viability, T/C (second compound 3.16 µM, first compound 3.16 µM)?
Its viability, T/C is 102%.

And the viability, T/C (second compound 3.16 µM, first compound 10 µM)?
Its viability, T/C is 110%.

What about the viability, T/C [17] of the same compound?
The viability, T/C was 98.9%.

What about the viability, T/C [18] of the same compound?
The viability, T/C was 101%.

What about the viability, T/C (second compound 10 µM, first compound 0.316 µM) of the same compound?
Its viability, T/C is 83.1%.

What about the viability, T/C (second compound 10 µM, first compound 1 µM) of the same compound?
Its viability, T/C is 104%.

What about the viability, T/C (second compound 10 µM, first compound 3.16 µM) of the same compound?
The viability, T/C was 98.8%.

And the viability, T/C (second compound 10 µM, first compound 10 µM)?
Its viability, T/C is 97.2%.
